What all share (assay type): in vivo
In assay [1] the test system is VCAM-1. The experiment in a line: Serum inflammatory factor VCAM-1 in ApoE−/− mice (ELISA). On the technique in general: In an ELISA, binding on a coated surface is turned into a signal by an enzyme label.
For assay [2], the system named is TNF-α. The experiment in a line: Serum inflammatory factor TNF-α in ApoE−/− mice (ELISA). Also noted: unit not given here. As for the experimental part:
After 1 week of adaptive feeding, the animals were randomly divided into 7 groups according to body weight: normal control group, model control group A769662 (30 mg/kg) administration group, metformin (260 mg/kg) administration group, IMM-H007 low, medium, and high administration groups (50, 100, 200 mg/kg), 8 in each group, and were given a high-fat diet (78.6% basal diet, 10% lard, 1.0% cholesterol, 10% egg yolk powder, and 0.4% bile salt), […] body weight, and were continuously administered and fed for 8 weeks to establish an atherosclerosis model.
(2) Effect of IMM-H007 on Serum Inflammatory Factors TNF-α and VCAM-1 in ApoE−/− Mice
Operated according to kit instructions

The subject of assay [3] is ApoE−/− mice. Kind of assay: Intravascular inflammatory response in high-fat-fed ApoE−/− mice (chronic inflammation model). The conditions noted are these: 8 weeks, high-fat diet. Here is the method:
After 1 week of adaptive feeding, the animals were randomly divided into 4 groups according to body weight: model control group, A769662 (30 mg/kg, ip), metformin (260 mg/kg), IMM-H007 (100 mg/kg) administration groups, 7 in each group, and were given a high-fat diet (78.6% basal diet, 10% lard, 1.00%/cholesterol, 10% egg yolk powder, and 0.4% bile salt), and simultaneously administered intragastrically at a dose of 0.1 ml/10 g body weight, and were continuously administered and fed for 8 weeks. The mice were anesthetized with pentobarbital sodium (60 mg/kg body weight). The right side of the mice was fixed on a observation table. A small mouth was cut along the abdominal cavity. The mesenteric vascular bed was gently pulled out. The small intestine of the mice was fixed in an observation window, the microscope is turned on to find a clear third-order mesenteric vein under a low power microscope, and then adjusted to 20-fold magnification for observation, after adjusting the brightness and focal length to the optimum, the white light was turned off, the fluorescence was turned on, and the leukocyte movement in the blood vessel could be observed. A 1 min leukocyte movement video was collected from each vessel segment using the ToumView software of the Dynamic Visual Microvascular Research System (Gene&I-SMC1). Leukocyte movement rate and number of leukocyte-endothelial cells adhesion were analyzed using image pro 6.0.
(1) Leukocyte Movement Rate and (2) Number of Leukocyte-Endothelial Cell Adhesion

Assay [4] deals with C57BL/6J mice. Kind of assay: TNF-α-induced acute vascular inflammation in mice (leukocyte movement rate and leukocyte-endothelial cell adhesion in mesenteric venules). The note with it: 7 days, 4 h after TNF-α. As for the experimental part: 60 C57BL/6J mice were randomly divided into 6 groups according to body weight: normal control group, model control group, IMM-H007 group, positive control AMPK agonist group metformin, A769662 group, and atorvastatin group, respectively, and were intragastrically administered with physiological saline, IMM-H007 (100 mg/kg), metformin (260 mg/kg), and atorvastatin (lipitor, 10 mg/kg), respectively, and injected intraperitoneally with A769662 (30 mg/kg, which is difficult to absorb by oral administration) for 7 consecutive days. On the 8th day, except that the blank control group was intraperitoneally injected with normal saline, other groups were all intraperitoneally injected with TNF-α (0.3 μg/dose) to induce acute inflammations in the blood vessels. Four hours after the injection of TNF-α, the optic nerve vascular plexus was intravenously injected with 0.05% Rhodamine-6G, and leukocytes were fluorescently labeled with 100 μl. The mice were anesthetized with pentobarbital sodium. The right side of the mice was fixed on a observation table. A small mouth was cut along the abdominal cavity. The mesenteric vascular bed was gently pulled out. The small intestine of the mice was fixed in a observation window. The microscope is turned on to find a clear third-order mesenteric vein under a low power microscope, and then adjusted to 20-fold magnification for observation, after adjusting the brightness and focal length to the optimum, the white light was turned off, the fluorescence was turned on, and a 1 min leukocyte movement video was collected from each vessel segment using the ToumView software of the Dynamic Visual Microvascular Research System (Gene&I-SMC1). The leukocyte movement rate and leukocyte-endothelial cell adhesion number reflect intravascular inflammations and are early signs of endothelial dysfunction.
The leukocyte movement rate was analyzed with image pro 6.0. At least three observation points were selected for each observation field, and at least 9 observation sites were finally counted for each mouse. The mean value was calculated to obtain the average leukocyte movement rate.

The test system of assay [5] is ApoE−/− mice. Kind of assay: Plaque area in ApoE−/− mice (oil red O staining of aorta and aortic root). The conditions noted are these: for plaque area, Overall length of aorta: in % (unit assumed). As for the experimental part: After 1 week of adaptive feeding, the animals were randomly divided into 7 groups according to body weight: normal control group, model control group A769662 (30 mg/kg) administration group, metformin (260 mg/kg) administration group, IMM-H007 low, medium, and high administration groups (50, 100, 200 mg/kg), 8 in each group, and were given a high-fat diet (78.6% basal diet, 10% lard, 1.0% cholesterol, 10% egg yolk powder, and 0.4% bile salt), and simultaneously administered intragastrically at a dose of 0.1 ml/10 g body weight, […] model.
The aortic root was stained with oil red O and the overall length of the aorta was stained with oil red O. The pathological images were analyzed by Photoshop, Image 1, and Image-Pro Plus softwares. The pathological grading data were statistically analyzed using Chi-square test.

The structures appear in SMILES notation.

For `N#Cc1c(O)c2c(-c3ccc(-c4ccccc4O)cc3)csc2[nH]c1=O` [A769662], in assay [1] (30 mg/kg, ip), the “serum VCAM-1” value was 233.1 ± 18.3. In addition, the “serum TNF-α” value in assay [2] (30 mg/kg, ip) amounted to 247.3 ± 49.7. Also, in assay [3] (30 mg/kg, ip), the Leukocyte movement rate was found to be 28.7 ± 7 µm/s and the “Number of leukocyte adhesion” value is reported as 13.7 ± 4.9 number/200 micron. Also, in assay [4] (30 mg/kg, ip), the Leukocyte movement rate was found to be 24.9 ± 3.8 µm/s and the “Number of leukocyte adhesion” value is on record as 3.5 ± 1.8 number/200 micron. Moreover, in assay [5] (30 mg/kg, ip), the “plaque area, Frozen section of root of aorta %” value is 3.02 ± 0.89 % and the “plaque area, Overall length of aorta” value turned out to be 2.61 ± 1.80.
In assay [4] (10 mg/kg intragastric), `CC(C)c1c(C(=O)Nc2ccccc2)c(-c2ccccc2)c(-c2ccc(F)cc2)n1CC[C@@H](O)C[C@@H](O)CC(=O)O` [Atorvastatin, atorvastatin] gave a Leukocyte movement rate of 20.6 µm/s and a Number of leukocyte adhesion of 5.3 number/200 µm.
Take `CN(C)C(=N)N=C(N)N` [Metformin, metformin]: the “serum VCAM-1” value in assay [1] (260 mg/kg) was found to be 234.9 ± 16.7. For the same compound, the “serum TNF-α” value in assay [2] (260 mg/kg) stood at 229.1 ± 35.2. Further, in assay [3] (260 mg/kg), the Leukocyte movement rate amounted to 21.4 µm/s and the “Number of leukocyte adhesion” value is given as 16.3 ± 6.8 number/200 micron. For the same compound, in assay [4] (260 mg/kg intragastric), the Leukocyte movement rate is 21.5 µm/s and the “Number of leukocyte adhesion” value turned out to be 5.1 ± 2.2 number/200 micron. In addition, in assay [5] (260 mg/kg), the “plaque area, Frozen section of root of aorta %” value came out at 3.73 ± 1.15 % and the “plaque area, Overall length of aorta” value was found to be 3.13 ± 1.76.
